According to ChEMBL document CHEMBL1201862, “PubChem BioAssay data set” (2004):
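Cultured in 96-well plates, cells were exposed to test compound for 48 hours across five concentrations. The concentration for 50% growth inhibition is given as GI50.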 Active and inactive are the calls of the source. Cut-off read from the data, not from the text of the source: active = GI50 up to about 1.1 µM and inactive = higher.

Experiments:
Assay in all cases: NCI-60 cell line screen, 48 h
MDA-MB-231 = system: MDA-MB-231
K562 = system: K562
HT-29 = system: HT-29
IGROV-1 = system: IGROV-1
SR = system: SR
UACC-257 = system: UACC-257
SNB-19 = system: SNB-19
M14 = system: M14
A498 = system: A498
MDA-MB-435 = system: MDA-MB-435
NCI-H522 = system: NCI-H522
UO-31 = system: UO-31
T47D = system: T47D
SF-268 = system: SF-268
EKVX = system: EKVX
RXF 393 = system: RXF 393
TK-10 = system: TK-10
Malme-3M = system: Malme-3M
SF-295 = system: SF-295
SK-MEL-2 = system: SK-MEL-2
NCI-H226 = system: NCI-H226
SK-MEL-28 = system: SK-MEL-28
KM12 = system: KM12
786-0 = system: 786-0
COLO 205 = system: COLO 205
BT-549 = system: BT-549
MOLT-4 = system: MOLT-4
SW-620 = system: SW-620
HOP-62 = system: HOP-62
SN12C = system: SN12C
SNB-75 = system: SNB-75
CAKI-1 = system: CAKI-1
UACC-62 = system: UACC-62
LOX IMVI = system: LOX IMVI
HCC 2998 = system: HCC 2998
NCI/ADR-RES = system: NCI/ADR-RES
OVCAR-8 = system: OVCAR-8
A549 = system: A549
OVCAR-5 = system: OVCAR-5
MDA-N = system: MDA-N
HCT-116 = system: HCT-116
SK-MEL-5 = system: SK-MEL-5
PC-3 = system: PC-3
MCF7 = system: MCF7
NCI-H23 = system: NCI-H23
Hs-578T = system: Hs-578T
DU-145 = system: DU-145
SK-OV-3 = system: SK-OV-3
OVCAR-3 = system: OVCAR-3
U-251 = system: U-251
HCT-15 = system: HCT-15
HOP-92 = system: HOP-92
ACHN = system: ACHN
SF-539 = system: SF-539
CCRF-CEM = system: CCRF-CEM
OVCAR-4 = system: OVCAR-4
RPMI-8226 = system: RPMI-8226
HL-60 = system: HL-60
NCI-H460 = system: NCI-H460

C/C=C(\C)c1cc(=O)c2c(C)cc3c(c2o1)C(OC)(OC(C)=O)c1c(O)c(C2CC(C)(N(C)C)C(OC(C)=O)C(C)O2)cc(C2CC(N(C)C)C(OC(C)=O)C(C)O2)c1C3=O (centres undefined)
GI50 (MDA-MB-231): 0.178 µM (active)
GI50 (K562): 0.239 µM (active)
GI50 (HT-29): 0.489 µM (active)
GI50 (IGROV-1): 1.61 µM (inactive)
GI50 (SR): 0.0251 µM (active)
GI50 (UACC-257): 1.55 µM (inactive)
GI50 (SNB-19): 1.78 µM (inactive)
GI50 (M14): 1.24 µM (inactive)
GI50 (A498): 1.27 µM (inactive)
GI50 (MDA-MB-435): 1.52 µM (inactive)
GI50 (NCI-H522): 0.254 µM (active)
GI50 (UO-31): 1.57 µM (inactive)
GI50 (T47D): 3.74 µM (inactive)
GI50 (SF-268): 0.27 µM (active)
GI50 (EKVX): 1.07 µM (active)
GI50 (RXF 393): 1.37 µM (inactive)
GI50 (TK-10): 1.45 µM (inactive)
GI50 (Malme-3M): 0.544 µM (active)
GI50 (SF-295): 0.942 µM (active)
GI50 (SK-MEL-2): 2.18 µM (inactive)
GI50 (NCI-H226): 1.34 µM (inactive)
GI50 (SK-MEL-28): 3.77 µM (inactive)
GI50 (KM12): 1.14 µM (inactive)
GI50 (786-0): 0.288 µM (active)
GI50 (COLO 205): 1.24 µM (inactive)
GI50 (BT-549): 2.27 µM (inactive)
GI50 (MOLT-4): 0.277 µM (active)
GI50 (SW-620): 0.237 µM (active)
GI50 (HOP-62): 0.621 µM (active)
GI50 (SN12C): 0.893 µM (active)
GI50 (SNB-75): 1.69 µM (inactive)
GI50 (CAKI-1): 0.436 µM (active)
GI50 (UACC-62): 1.22 µM (inactive)
GI50 (LOX IMVI): 0.512 µM (active)
GI50 (HCC 2998): 0.0218 µM (active)
GI50 (NCI/ADR-RES): 1.75 µM (inactive)
GI50 (OVCAR-8): 0.552 µM (active)
GI50 (A549): 0.514 µM (active)
GI50 (OVCAR-5): 2.17 µM (inactive)
GI50 (MDA-N): 1.64 µM (inactive)
GI50 (HCT-116): 0.286 µM (active)
GI50 (SK-MEL-5): 1.51 µM (inactive)
GI50 (PC-3): 1.16 µM (inactive)
GI50 (MCF7): 1.64 µM (inactive)
GI50 (NCI-H23): 1.02 µM (active)
GI50 (Hs-578T): 1.16 µM (inactive)
GI50 (DU-145): 0.497 µM (active)
GI50 (SK-OV-3): 2.75 µM (inactive)
GI50 (OVCAR-3): 2.28 µM (inactive)
GI50 (U-251): 0.914 µM (active)
GI50 (HCT-15): 1.05 µM
GI50 (HOP-92): 1.28 µM (inactive)
GI50 (ACHN): 0.202 µM (active)
GI50 (SF-539): 1.55 µM (inactive)
GI50 (CCRF-CEM): 0.419 µM (active)

CCOC(=O)C1=C(C)C2C=C(c3cccs3)CC(c3ccc(Cl)cc3)=C2OC1=O (centres undefined)
GI50 (MDA-MB-231): 92.3 µM (inactive)
GI50 (K562): 5.05 µM (inactive)
GI50 (HT-29): 30 µM (inactive)
GI50 (IGROV-1): 26.3 µM (inactive)
GI50 (SR): 15.5 µM (inactive)
GI50 (OVCAR-4): 19.7 µM (inactive)
GI50 (UACC-257): 17.7 µM (inactive)
GI50 (SNB-19): 45.2 µM (inactive)
GI50 (M14): 58.3 µM (inactive)
GI50 (RPMI-8226): 7.59 µM (inactive)
GI50 (A498): 83.2 µM (inactive)
GI50 (MDA-MB-435): 42.4 µM (inactive)
GI50 (HL-60): 4.69 µM (inactive)
GI50 (NCI-H522): 19.2 µM (inactive)
GI50 (UO-31): 13.3 µM (inactive)
GI50 (T47D): 3.97 µM (inactive)
GI50 (SF-268): 97.1 µM (inactive)
GI50 (NCI-H460): 64.4 µM (inactive)
GI50 (EKVX): 31 µM (inactive)
GI50 (RXF 393): 84.5 µM (inactive)
GI50 (TK-10): 31.7 µM (inactive)
GI50 (SF-295): 60.4 µM (inactive)
GI50 (SK-MEL-2): > 100 µM (inactive)
GI50 (NCI-H226): 21 µM (inactive)
GI50 (SK-MEL-28): 94.4 µM (inactive)
GI50 (KM12): 15.2 µM (inactive)
GI50 (786-0): 20.6 µM (inactive)
GI50 (COLO 205): 40.9 µM (inactive)
GI50 (BT-549): 31.5 µM (inactive)
GI50 (MOLT-4): 6.07 µM (inactive)
GI50 (SW-620): 65 µM (inactive)
GI50 (HOP-62): 86.1 µM (inactive)
GI50 (SN12C): 44.3 µM (inactive)
GI50 (SNB-75): 50.8 µM (inactive)
GI50 (CAKI-1): 57.8 µM (inactive)
GI50 (UACC-62): 45.8 µM (inactive)
GI50 (LOX IMVI): 16.9 µM (inactive)
GI50 (HCC 2998): 22.5 µM (inactive)
GI50 (NCI/ADR-RES): 30.5 µM (inactive)
GI50 (OVCAR-8): 31.8 µM (inactive)
GI50 (A549): > 100 µM (inactive)
GI50 (OVCAR-5): > 100 µM (inactive)
GI50 (MDA-N): 37.9 µM (inactive)
GI50 (HCT-116): 7.43 µM (inactive)
GI50 (SK-MEL-5): 27 µM (inactive)
GI50 (PC-3): 14.1 µM (inactive)
GI50 (MCF7): 14.1 µM (inactive)
GI50 (NCI-H23): 71.1 µM (inactive)
GI50 (Hs-578T): > 100 µM (inactive)
GI50 (DU-145): 29.9 µM (inactive)
GI50 (SK-OV-3): > 100 µM (inactive)
GI50 (OVCAR-3): 24.7 µM (inactive)
GI50 (U-251): 33.3 µM (inactive)
GI50 (HCT-15): 16.8 µM
GI50 (HOP-92): > 100 µM (inactive)
GI50 (ACHN): 32.7 µM (inactive)
GI50 (CCRF-CEM): 17.3 µM (inactive)

NCCNCC1CCNCC1
GI50 (MDA-MB-231): > 100 µM (inactive)
GI50 (K562): > 100 µM (inactive)
GI50 (HT-29): > 100 µM (inactive)
GI50 (IGROV-1): > 100 µM (inactive)
GI50 (SR): > 100 µM (inactive)
GI50 (OVCAR-4): > 100 µM (inactive)
GI50 (UACC-257): > 100 µM (inactive)
GI50 (SNB-19): > 100 µM (inactive)
GI50 (M14): > 100 µM (inactive)
GI50 (RPMI-8226): > 100 µM (inactive)
GI50 (A498): > 100 µM (inactive)
GI50 (MDA-MB-435): > 100 µM (inactive)
GI50 (NCI-H522): > 100 µM (inactive)
GI50 (UO-31): > 100 µM (inactive)
GI50 (T47D): > 100 µM (inactive)
GI50 (SF-268): > 100 µM (inactive)
GI50 (NCI-H460): > 100 µM (inactive)
GI50 (EKVX): > 100 µM (inactive)
GI50 (RXF 393): > 100 µM (inactive)
GI50 (TK-10): > 100 µM (inactive)
GI50 (Malme-3M): > 100 µM (inactive)
GI50 (SF-295): > 100 µM (inactive)
GI50 (SK-MEL-2): > 100 µM (inactive)
GI50 (NCI-H226): > 100 µM (inactive)
GI50 (SK-MEL-28): > 100 µM (inactive)
GI50 (KM12): > 100 µM (inactive)
GI50 (786-0): > 100 µM (inactive)
GI50 (COLO 205): > 100 µM (inactive)
GI50 (BT-549): > 100 µM (inactive)
GI50 (MOLT-4): > 100 µM (inactive)
GI50 (SW-620): > 100 µM (inactive)
GI50 (HOP-62): > 100 µM (inactive)
GI50 (SN12C): > 100 µM (inactive)
GI50 (SNB-75): > 100 µM (inactive)
GI50 (CAKI-1): > 100 µM (inactive)
GI50 (UACC-62): > 100 µM (inactive)
GI50 (LOX IMVI): > 100 µM (inactive)
GI50 (HCC 2998): > 100 µM (inactive)
GI50 (NCI/ADR-RES): > 100 µM (inactive)
GI50 (OVCAR-8): > 100 µM (inactive)
GI50 (A549): > 100 µM (inactive)
GI50 (OVCAR-5): > 100 µM (inactive)
GI50 (MDA-N): > 100 µM (inactive)
GI50 (HCT-116): > 100 µM (inactive)
GI50 (SK-MEL-5): > 100 µM (inactive)
GI50 (PC-3): > 100 µM (inactive)
GI50 (MCF7): > 100 µM (inactive)
GI50 (NCI-H23): > 100 µM (inactive)
GI50 (Hs-578T): > 100 µM (inactive)
GI50 (DU-145): > 100 µM (inactive)
GI50 (SK-OV-3): > 100 µM (inactive)
GI50 (OVCAR-3): > 100 µM (inactive)
GI50 (U-251): > 100 µM (inactive)
GI50 (HCT-15): > 100 µM
GI50 (HOP-92): > 100 µM (inactive)
GI50 (ACHN): > 100 µM (inactive)
GI50 (SF-539): > 100 µM (inactive)
